Measurements published in patent US20130296370A1, “COMPOSITION COMPRISING A PHOTOACTIVATABLE LARVICIDE” (UNIVERSITA DEGLI STUDI DI PADOVA, priority 2010, published 2013).

Test system: Aedes aegypti 3rd-4th instar larvae
Test: Efficacy and residual activity of photolarvicidal formulations
Assay type: in vivo
Details: for % mortality by incubation time: 12 h irradiation
Protocol: To assess the effect of different C14 loading concentrations on the photolarvicidal activity of the C14-PFP complexes, two photolarvicidal formulates were prepared. The formulates, named C14 PF-5 and C14 PF-50, were obtained by incubating overnight at room temperature under gentle shaking 25 mg of PFP in 500 ml of 5 μM and 50 μM aqueous solutions of C14, respectively. The solutions were filtered using Whatman qualitative filter papers (Whatman International Ltd., UK) and the solid residues, consisting in the C14-PFP complexes, were washed with 10 ml distilled water, oven-dried at 37° C. for 4 hours and stored at room temperature until use. To quantify the amount of bound C14, samples of the two C14-PFP formulates were dissolved in 3 ml of 2% SDS for 2 h under gentle magnetic stirring. The extracted porphyrin was then quantified by spectrophotometric analysis as described above.
All the experiments were carried out in a climatic chamber at 28±2° C. with a regulated photoperiod of 12 hours. Transparent plastic trays, containing 500 ml C14 solutions or spring water were employed. Typically, 5±1 days old, 3rd-early 4th instar Aedes aegypti larvae were used. All the experiments were replicated three times.
Five series of trays were prepared, namely 0.3 μM and 5 μM C14 porphyrin solutions containing 6 mg PFP (wherein PFP means powdered food pellet (PFP) with final particle diameter of 5-500 μm diameter obtained by crushing a standard food pellet for laboratory rodents, namely 4RF18 GLP (Mucedola Srl, Italy) using an electric blender and then sieving at mesh diameter 500 μm); spring water containing 6 mg C14 PF-5 or C14 PF-50 formulate (wherein C14 PF-5 and C14 PF-50, were obtained by incubating overnight at room temperature under gentle shaking 25 mg of PFP in 500 ml of 5 μM and 50 μM aqueous solutions of C14, respectively) and spring water containing 6 mg PFP as a control. Each series was arranged into three groups, which were incubated at a 12 hour photoperiod for 48 hours, one, or two weeks, respectively. At the end of the incubation periods, batches of 100 larvae, having fasted for 24 hours, were introduced into the trays, at 8 pm (beginning of the 12 h-long dark period in the climatic chamber). Larval mortality was evaluated after 12 hours (next day at 8.00 pm) of irradiation.

CCCCCCCCCCCCCC[n+]1ccc(-c2c3nc(c(-c4cc[n+](C)cc4)c4ccc([nH]4)c(-c4cc[n+](C)cc4)c4nc(c(-c5cc[n+](C)cc5)c5ccc2[nH]5)C=C4)C=C3)cc1.Cc1ccc(S(=O)(=O)[O-])cc1.Cc1ccc(S(=O)(=O)[O-])cc1.Cc1ccc(S(=O)(=O)[O-])cc1.Cc1ccc(S(=O)(=O)[O-])cc1 [C14, meso-tri(N-methyl-pyridyl), mono(N-tetradecyl-pyridyl)porphine]
% mortality by incubation time (0.3 μM C14 solution with 6 mg untreated larval food, trays incubated 1 week): 100%
% mortality by incubation time (0.3 μM C14 solution with 6 mg untreated larval food, trays incubated 2 weeks): 0%
% mortality by incubation time (0.3 μM C14 solution with 6 mg untreated larval food, trays incubated 48 hours): 100%
residual activity (0.3 μM solutions in water containing 6 mg untreated PFP): 1 week
% mortality by incubation time (5 μM C14 solution with 6 mg untreated larval food, trays incubated 1 week): 100%
% mortality by incubation time (5 μM C14 solution with 6 mg untreated larval food, trays incubated 2 weeks): 100%
% mortality by incubation time (5 μM C14 solution with 6 mg untreated larval food, trays incubated 48 hours): 100%
residual activity (5 μM solutions in water containing 6 mg untreated PFP): two weeks
